These results are taken from ChEMBL document CHEMBL1201862, “PubChem BioAssay data set” (2004).

Test systems include 786-0; A549; BT-549; HCT-116; HT-29; Hs-578T; Malme-3M; OVCAR-3; PC-3; RPMI-8226; SK-MEL-5; SR; UACC-257; UACC-62; CCRF-CEM; KM12; OVCAR-5; RXF 393.
Common to all, as to test: NCI-60 cell line screen, 48 h

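Following 48 hours of exposure in 96-well plates, responses at five concentrations were used to interpolate endpoints linearly. At the GI50, growth is halved.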 The source made the active and inactive calls. No stated cut-off is given here; in the data, active = GI50 up to about 1.1 µM and inactive = higher.

Take `O=[N+]([O-])c1ccc2[nH]c(-c3ccc(Cl)cc3)nc2c1`: the GI50 in the assay on 786-0 is 33 µM (inactive); with A549, 20.8 µM (inactive); in the assay with BT-549 it was 29.7 µM (inactive); in the assay on HCT-116, 17.3 µM (inactive); with HT-29, 18.5 µM (inactive); with Hs-578T it was 25.5 µM (inactive). For the same molecule, the GI50 with Malme-3M is 28.4 µM (inactive); in the assay on OVCAR-3, 30.8 µM (inactive); in the assay on PC-3, 21.4 µM (inactive); in the assay with RPMI-8226 it was 23.2 µM (inactive); in the assay on SK-MEL-5 it was 16.1 µM (inactive); in the assay with SR, 26.3 µM (inactive). The GI50 is 20.5 µM (inactive) with UACC-257 and 21.2 µM (inactive) with UACC-62.
As for `CN(C)CCCNc1ncnc2[nH]cnc12`, the GI50 in the assay with 786-0, with A549, in the assay on BT-549, in the assay on CCRF-CEM, in the assay on HCT-116 and with HT-29 was > 100 µM (inactive) each time. The GI50 in the assay on Hs-578T, in the assay on KM12, in the assay on Malme-3M, in the assay with OVCAR-3, with OVCAR-5 and in the assay on PC-3 was > 100 µM (inactive) each time. Besides, the GI50 with RPMI-8226, with RXF 393, with SK-MEL-5 and with UACC-62 was > 100 µM (inactive) throughout.
As for `Cn1c(-c2cccs2)cc(-c2ccccc2)c1-c1cccs1`, the GI50 in the assay with 786-0 was 35.4 µM (inactive); in the assay on A549 it was 12.3 µM (inactive); in the assay with BT-549 it was > 100 µM (inactive); in the assay with CCRF-CEM, > 100 µM (inactive); in the assay on HCT-116, 31.2 µM (inactive); in the assay on HT-29, 63 µM (inactive). Further, the GI50 is > 100 µM (inactive) in the assay with Hs-578T; 74 µM (inactive) with KM12; 20.4 µM (inactive) in the assay on OVCAR-3; 88.5 µM (inactive) in the assay on OVCAR-5; 58.5 µM (inactive) with PC-3; > 100 µM (inactive) with RPMI-8226. Also, the GI50 with RXF 393 was > 100 µM (inactive); in the assay on SK-MEL-5, 18.6 µM (inactive); in the assay with SR, 18.2 µM (inactive); with UACC-257, 48.2 µM (inactive); with UACC-62, 97.5 µM (inactive).
As for `CCOC(=O)NC(=S)NN(C)C1=NCC(C)(C)S1`, the GI50 in the assay on 786-0, with A549, with BT-549, with CCRF-CEM, with HCT-116 and with Hs-578T was > 100 µM (inactive) in each case. Also, the GI50 in the assay with KM12, with OVCAR-3, in the assay with OVCAR-5, with PC-3, in the assay with RPMI-8226 and in the assay on RXF 393 was > 100 µM (inactive) each time. For the same molecule, the GI50 in the assay on SK-MEL-5, in the assay on SR, in the assay on UACC-257 and in the assay on UACC-62 was > 100 µM (inactive) in each case.
Take `CC1(C)C/C(=N/O)c2c(nc3ccc4ccccc4c3c2-c2ccc(Cl)cc2)C1`: the GI50 is 3.79 µM (inactive) in the assay on 786-0; 19.4 µM (inactive) in the assay with A549; 10.6 µM (inactive) in the assay on BT-549; 10.9 µM (inactive) in the assay with CCRF-CEM; 11 µM (inactive) in the assay with HCT-116; 15.4 µM (inactive) in the assay on HT-29. For the same molecule, the GI50 in the assay on Hs-578T is 23.3 µM (inactive); in the assay with KM12, 42 µM (inactive); with OVCAR-3, 12.3 µM (inactive); in the assay with OVCAR-5, 40.7 µM (inactive); in the assay with PC-3, 25.9 µM (inactive); in the assay with RPMI-8226, 27.2 µM (inactive). Besides, the GI50 in the assay with RXF 393 was 17.6 µM (inactive); with SK-MEL-5 it was 37.2 µM (inactive); with SR, 4.75 µM (inactive); with UACC-257, 25.4 µM (inactive); in the assay with UACC-62 it was 17.3 µM (inactive).
As to `O=C1CSC(c2ccc(Cl)cc2)N1c1ccc(-c2ccc(-n3c(-c4ccccc4)nc4ccccc4c3=O)cc2)cc1` (configuration not stated), the GI50 in the assay on 786-0 was 27.4 µM (inactive); in the assay on A549, 37.5 µM (inactive); in the assay on BT-549, 19 µM (inactive); in the assay with CCRF-CEM it was 30.6 µM (inactive); in the assay on HCT-116, 24.8 µM (inactive); with HT-29, 15.2 µM (inactive). Besides, the GI50 is 28.8 µM (inactive) in the assay with Hs-578T; 26.2 µM (inactive) in the assay on KM12; 28.4 µM (inactive) in the assay on Malme-3M; > 100 µM (inactive) with OVCAR-3; > 10 µM (inactive) in the assay with OVCAR-5; 26.1 µM (inactive) in the assay with PC-3. For the same molecule, the GI50 in the assay on RPMI-8226 was 55.7 µM (inactive); with SK-MEL-5, 24.2 µM (inactive); with SR it was 28.2 µM (inactive); in the assay on UACC-257, > 100 µM (inactive); in the assay on UACC-62, 20.2 µM (inactive).
With `CC(C)=CC(=O)c1[nH]c2ccccc2c1CC(=O)NCCc1c[nH]cn1`, the GI50 in the assay on 786-0, in the assay with A549, in the assay with BT-549, in the assay on CCRF-CEM, in the assay with HCT-116 and with HT-29 was > 100 µM (inactive) in each case. Further, the GI50 with Hs-578T, in the assay with KM12, with Malme-3M, with OVCAR-3, in the assay on OVCAR-5 and in the assay with PC-3 was > 100 µM (inactive) in each case. In addition, the GI50 with RXF 393, with SK-MEL-5, in the assay on SR, in the assay on UACC-257 and in the assay with UACC-62 was > 100 µM (inactive) each time.
Turning to `O=C(O)CC1NC(/C(=C/c2ccccc2)NC(=O)c2ccccc2)OC1=O` (configuration not stated), the GI50 with 786-0 is 29.4 µM (inactive); in the assay with A549, 84.5 µM (inactive); with BT-549, 19.9 µM (inactive); in the assay with CCRF-CEM it was 22.6 µM (inactive); in the assay on HCT-116, 18.5 µM (inactive); in the assay with HT-29 it was 29.8 µM (inactive). The GI50 is 44.8 µM (inactive) in the assay on Hs-578T; 17.4 µM (inactive) with KM12; 36.9 µM (inactive) with Malme-3M; 20.6 µM (inactive) in the assay with OVCAR-3; 76 µM (inactive) with OVCAR-5; > 100 µM (inactive) with PC-3. Besides, the GI50 with RPMI-8226 was 20.2 µM (inactive); with RXF 393, 34.5 µM (inactive); in the assay with SK-MEL-5, 16.4 µM (inactive); with UACC-257 it was > 100 µM (inactive); with UACC-62, 22.5 µM (inactive).
`Cn1c(=O)n2n(c1=O)C([S+]([O-])c1ccccc1)C2` (configuration not stated): the GI50 was > 100 µM (inactive) in the assay with 786-0; 65.2 µM (inactive) in the assay with A549; > 100 µM (inactive) in the assay with BT-549; 20.2 µM (inactive) with CCRF-CEM; > 100 µM (inactive) in the assay with HCT-116; > 100 µM (inactive) in the assay on HT-29. Besides, the GI50 in the assay on Hs-578T is > 100 µM (inactive); in the assay with KM12 it was 42.8 µM (inactive); with OVCAR-3, > 100 µM (inactive); in the assay with OVCAR-5, > 100 µM (inactive); with PC-3, 33.4 µM (inactive); in the assay on RPMI-8226 it was > 100 µM (inactive). For the same molecule, the GI50 is > 100 µM (inactive) with RXF 393; > 100 µM (inactive) with SK-MEL-5; 38.3 µM (inactive) in the assay with SR; > 100 µM (inactive) in the assay with UACC-257; > 100 µM (inactive) in the assay with UACC-62.
With `CN1CCN(CCCNN)CC1`, the GI50 in the assay with 786-0, in the assay with A549, in the assay on BT-549, with HCT-116, in the assay on HT-29 and with Hs-578T was > 100 µM (inactive) each time. In addition, the GI50 in the assay on KM12 was > 100 µM (inactive); in the assay with OVCAR-3, > 100 µM (inactive); in the assay with OVCAR-5, > 100 µM (inactive); in the assay with PC-3, > 100 µM (inactive); in the assay on RPMI-8226, 86.7 µM (inactive); with RXF 393, > 100 µM (inactive). The GI50 is > 100 µM (inactive) with SK-MEL-5, 0.0327 µM (active) in the assay on SR, > 100 µM (inactive) with UACC-257 and > 100 µM (inactive) in the assay with UACC-62.
On to `O=C(Nc1sccc1S(=O)(=O)c1ccc(Cl)cc1)C(F)(F)F`, for which the GI50 in the assay with 786-0 is 17 µM (inactive); in the assay on A549, 29.2 µM (inactive); in the assay on BT-549, 58.5 µM (inactive); in the assay on HCT-116 it was 14.1 µM (inactive); in the assay with HT-29, 25 µM (inactive); in the assay on Hs-578T, 18.7 µM (inactive). The GI50 is 13.4 µM (inactive) in the assay on KM12; 27.2 µM (inactive) with Malme-3M; 31 µM (inactive) in the assay on OVCAR-3; 48.4 µM (inactive) in the assay with OVCAR-5; 21.5 µM (inactive) with PC-3; 3.88 µM (inactive) in the assay with RPMI-8226. Also, the GI50 with SK-MEL-5 was 16 µM (inactive); in the assay with SR, 22.8 µM (inactive); with UACC-257 it was 32.7 µM (inactive); in the assay with UACC-62, 9.27 µM (inactive).
For the molecule `O=C(Nc1nccs1)NS(=O)(=O)n1cnc2ccccc21`, the GI50 in the assay with 786-0, in the assay with A549, with BT-549, in the assay on CCRF-CEM, in the assay on HCT-116 and with HT-29 was > 100 µM (inactive) in each case. Also, the GI50 with Hs-578T, in the assay on KM12, in the assay on Malme-3M, with OVCAR-3, in the assay with OVCAR-5 and in the assay with PC-3 was > 100 µM (inactive) in each case. Moreover, the GI50 in the assay with RPMI-8226, in the assay with RXF 393, with SK-MEL-5, with UACC-257 and in the assay with UACC-62 was > 100 µM (inactive) each time.
